{"source": "patent US10864198B2", "about": "“Methods of preventing cardiovascular events in residual risk dyslipidemic populations” (Kowa Company, Ltd., priority 2016, dated 2020)", "key": {"[1]": {"tested_on": "patients on statins with residual cardiovascular risk", "conditions": "two clinical trials; cited from earlier work"}, "[2]": {"tested_on": "dyslipidemia patients on concurrent statin therapy", "format": "in vivo, human", "conditions": "for LDL-C levels increase vs. placebo: significant", "description": "The results of the study are depicted in FIGS. 1A-1D."}, "[3]": {"tested_on": "patients with type 2 diabetes mellitus with residual dyslipidemia on statin", "test": "Example 2: post-hoc analysis of type 2 diabetes patients of the Example 1 study", "format": "in vivo, human", "conditions": "for increase in HDL-C / BQ LDL-C increase: significant", "description": "Overall, 161 type 2 diabetes mellitus patients were randomized and 154 patients completed treatment. […] Tables 1-4 also report the results of the analyses, and compare the results to the results obtained for the general residual dyslipidemia population studied in Example 1."}, "[4]": {"tested_on": "patients with fasting high TG and non-HDL-C treated with pitavastatin", "test": "Example 3: double-blind parallel-group study, pemafibrate add-on to pitavastatin, 12 weeks", "format": "in vivo, human", "conditions": "for Fasting non-HDL-C reduction: with pitavastatin, placebo −5.9%; for Fasting TG reduction (percentage change from baseline): with pitavastatin 2 mg/day, P<0.001 vs placebo (−6.9%)", "description": "The primary endpoint was the percentage change in TG from baseline and incidence of adverse drug reactions (ADRs) and adverse events (AEs)."}, "PPARγ": {"biological_target": "T1, PPARγ (Homo sapiens, UniProt P37231)", "T1 sequence (P37231 1-505)": "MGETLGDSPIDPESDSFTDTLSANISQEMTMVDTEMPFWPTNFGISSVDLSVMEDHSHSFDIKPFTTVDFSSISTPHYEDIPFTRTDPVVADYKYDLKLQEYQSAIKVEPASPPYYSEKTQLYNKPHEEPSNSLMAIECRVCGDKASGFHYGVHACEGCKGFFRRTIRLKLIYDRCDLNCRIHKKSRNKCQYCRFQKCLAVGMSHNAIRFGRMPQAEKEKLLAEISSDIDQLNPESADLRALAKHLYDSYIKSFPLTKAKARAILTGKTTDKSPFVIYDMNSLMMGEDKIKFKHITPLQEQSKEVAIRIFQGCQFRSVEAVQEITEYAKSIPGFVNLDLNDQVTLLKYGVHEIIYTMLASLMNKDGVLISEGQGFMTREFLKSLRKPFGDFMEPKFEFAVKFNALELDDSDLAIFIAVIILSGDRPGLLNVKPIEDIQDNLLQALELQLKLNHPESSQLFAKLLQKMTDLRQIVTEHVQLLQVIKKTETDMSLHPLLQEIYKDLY", "conditions": "PPAR transcriptional activity; Fruchart 2013 Table 1; cited from earlier work"}, "PPARδ": {"biological_target": "T2, PPARδ (Homo sapiens, UniProt Q03181)", "T2 sequence (Q03181 1-441)": "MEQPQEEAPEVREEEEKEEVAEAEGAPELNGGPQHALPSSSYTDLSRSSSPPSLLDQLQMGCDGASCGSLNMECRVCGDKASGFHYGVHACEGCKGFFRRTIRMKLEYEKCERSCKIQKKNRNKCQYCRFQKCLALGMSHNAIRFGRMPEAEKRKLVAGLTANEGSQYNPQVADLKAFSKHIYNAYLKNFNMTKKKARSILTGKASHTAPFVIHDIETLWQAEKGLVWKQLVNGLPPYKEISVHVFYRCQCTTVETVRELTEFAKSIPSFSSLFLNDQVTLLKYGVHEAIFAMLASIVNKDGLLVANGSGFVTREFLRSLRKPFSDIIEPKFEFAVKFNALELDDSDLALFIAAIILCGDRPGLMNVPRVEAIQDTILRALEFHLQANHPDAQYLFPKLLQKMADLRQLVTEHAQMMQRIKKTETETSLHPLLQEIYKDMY", "conditions": "PPAR transcriptional activity; Fruchart 2013 Table 1; cited from earlier work"}, "men with dyslipidemia": {"tested_on": "men with dyslipidemia", "conditions": "Helsinki Heart Study and VA-HIT Study; cited from earlier work"}}, "note": "Where two headings read alike, the source gives them in different places."}
{"smiles": "O=C(O)c1cccnc1", "note": "[niacin]", "values": [{"measurement": "prevention of cardiovascular events", "setting": "[1]", "value": "unable to prevent cardiovascular events"}]}
{"smiles": "CC[C@@H](Oc1cccc(CN(CCCOc2ccc(OC)cc2)c2nc3ccccc3o2)c1)C(=O)O", "note": "[pemafibrate, Pemafibrate]", "values": [{"measurement": "LDL-C levels increase vs. placebo", "setting": "[2]; 0.1 mg BID, 12 weeks", "value": 22.46, "unit": "%"}, {"measurement": "Non-HDL-C levels", "setting": "[2]; 0.2 mg BID, 12 weeks", "value": "significantly reduced"}, {"measurement": "LDL-C levels increase vs. placebo", "setting": "[2]; 0.2 mg BID, 12 weeks", "value": 24.25, "unit": "%"}, {"measurement": "Non-HDL-C levels", "setting": "[2]; 0.2 mg QD, 12 weeks", "value": "significantly reduced"}, {"measurement": "LDL-C levels increase vs. placebo", "setting": "[2]; 0.4 mg QD, 12 weeks", "value": 18.74, "unit": "%"}, {"measurement": "TG levels", "setting": "[2]; all treatment groups after 12 weeks", "value": "significantly reduced"}, {"measurement": "change in total Apo B", "setting": "[2]; any dose, 12 weeks", "value": "no significant change"}, {"measurement": "Adverse events, patients", "setting": "[2]; both, human, in vivo, 12 weeks", "value": 46.4, "unit": "%"}, {"measurement": "increase in HDL-C", "setting": "[3]; 0.05 mg BID", "value": 11.39, "unit": "%"}, {"measurement": "increase in HDL-C", "setting": "[3]; 0.1 mg BID", "value": 11.94, "unit": "%"}, {"measurement": "BQ LDL-C increase", "setting": "[3]; 0.1 mg QD", "value": 6.7, "unit": "%"}, {"measurement": "BQ LDL-C increase", "setting": "[3]; 0.2 mg BID", "value": 1.8, "unit": "%"}, {"measurement": "increase in HDL-C", "setting": "[3]; 0.2 mg QD", "value": 9.48, "unit": "%"}, {"measurement": "TG levels", "setting": "[3]; across all doses", "value": "significantly reduced"}, {"measurement": "Apo B48 levels", "setting": "[3]; all doses", "value": "significantly reduced"}, {"measurement": "Apo CIII levels", "setting": "[3]; all doses", "value": "significantly reduced"}, {"measurement": "remnant-C levels", "setting": "[3]; all doses", "value": "significantly reduced"}, {"measurement": "change in total Apo B", "setting": "[3]; any dose", "value": "no significant change"}, {"measurement": "fasting plasma glucose compared to placebo", "setting": "[4]; 0.4 mg/day, P=0.003", "value": "significant reductions"}, {"measurement": "HOMA-IR compared to placebo", "setting": "[4]; 0.4 mg/day, P=0.019", "value": "significant reductions"}, {"measurement": "very small LDL-C compared to placebo", "setting": "[4]; HPLC analysis, P<0.05", "value": "significant reduction"}, {"measurement": "effect on total LDL-C", "setting": "[4]; add-on to pitavastatin, 12 weeks", "value": "neutral effect"}, {"measurement": "Apo CIII compared to placebo", "setting": "[4]; all pemafibrate groups, P<0.01", "value": "reductions"}, {"measurement": "HDL-C compared to placebo", "setting": "[4]; all pemafibrate groups, P<0.01", "value": "Significant increase"}, {"measurement": "VLDL-C compared to placebo", "setting": "[4]; all pemafibrate groups, P<0.01", "value": "reductions"}, {"measurement": "remnant lipoprotein cholesterol compared to placebo", "setting": "[4]; all pemafibrate groups, P<0.01", "value": "reductions"}, {"measurement": "Fasting non-HDL-C reduction", "setting": "[4]; pemafibrate 0.1 mg, 12 weeks", "value": "−11.3", "unit": "%"}, {"measurement": "Fasting TG reduction (percentage change from baseline)", "setting": "[4]; pemafibrate 0.1 mg/day twice-daily, 12 weeks", "value": "−46.1", "unit": "%"}, {"measurement": "Fasting non-HDL-C reduction", "setting": "[4]; pemafibrate 0.2 mg, 12 weeks", "value": "−14.1", "unit": "%"}, {"measurement": "Fasting TG reduction (percentage change from baseline)", "setting": "[4]; pemafibrate 0.2 mg/day twice-daily, 12 weeks", "value": "−53.4", "unit": "%"}, {"measurement": "Fasting non-HDL-C reduction", "setting": "[4]; pemafibrate 0.4 mg, 12 weeks", "value": "−13.3", "unit": "%"}, {"measurement": "Fasting TG reduction (percentage change from baseline)", "setting": "[4]; pemafibrate 0.4 mg/day twice-daily, 12 weeks", "value": "−52.0", "unit": "%"}, {"measurement": "EC50", "setting": "PPARγ", "value": 2300, "unit": "nM"}, {"measurement": "EC50", "setting": "PPARδ", "value": 1000, "unit": "nM"}]}
{"smiles": "CC(C)OC(=O)C(C)(C)Oc1ccc(C(=O)c2ccc(Cl)cc2)cc1", "note": "[Fenofibrate, reference compound]", "values": [{"measurement": "PPARδ EC50", "setting": "PPARδ", "value": "not activated"}]}
{"smiles": "Cc1ccc(C)c(OCCCC(C)(C)C(=O)O)c1", "note": "[gemfibrozil]", "values": [{"measurement": "primary endpoint for reducing cardiovascular risk", "setting": "men with dyslipidemia", "value": "met their primary endpoint"}]}
